# Results as given in patent US20260083769A1, “2-Aminopropane-1,3-Diol-Capped Cationic Peptoids for Nucleic Acid Delivery” (NUTCRACKER THERAPEUTICS, INC., priority 2022, published 2026).
# Read-outs that look alike come from different tables or passages of the source. Where a SMILES comes first, the peptide text is derived from it. [ ]: non-standard residue; d: D form. N(2-ethylhexyl)Gly = CCCCC(CC)CNCC(=O)O; Gly(N-dodecyl) = CCCCCCCCCCCCNCC(=O)O; N(CH(CH2OH)2)Gly = O=C(O)CNC(CO)CO; N(octyl)Gly = CCCCCCCCNCC(=O)O
# Assays:
# [1] = Percent encapsulated mRNA, RiboGreen assay; format: physicochemical; settings: Table 5; delivery vehicle comprising the peptoid, Formulation D22, fLuc mRNA
# Method in brief: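 Modified RiboGreen fluorescence assay on Fluc mRNA formulations diluted to 500 ng/ml in Tris-EDTA. Samples were read with and without Triton X-100 lysis (2% for 10 min in one protocol). Percent encapsulation was derived from the fluorescence ratio of intact versus lysed particles.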
# [2] = RBC hemolysis as metric for fusogenicity; format: cell-based; settings: sheep red blood cells (RBCs), 5% v/v, Table 5, delivery vehicle, 37° C. 45 min
# Method in brief: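 Sheep RBCs at 5% v/v in 20 mM citrate/140 mM NaCl pH 5.5 or PBS, exposed to LNPs at […] in well, 37 °C for 45 min. Supernatant absorbance at 425 nm; % hemolysis normalized to 2% Triton full lysis and buffer-only control.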
# [3] = Particle size and polydispersity (PDI) of delivery vehicles by dynamic light scattering; format: physicochemical; settings: Table 5; delivery vehicle comprising the peptoid, Formulation D22, fLuc mRNA
# Method in brief: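 Delivery vehicle complexes were diluted in PBS to 2 ng/μL and measured by DLS. The cumulant fit of the correlation function gave PDI and hydrodynamic diameter in nm.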
# [4] = tested on: BALB/c mice; test: In vivo fLuc mRNA expression after IV dose, whole body and organ bioluminescence; settings: BALB/c mice, IV, luminescence 6 hours after dose, lipid block screen
# Description: In one particular instance, peptoids disclosed herein were formulated into delivery vehicles by first dissolving in ethanol along with DSPC, cholesterol, and DMG-PEG2000 at weight ratio of 20:1.8:7.2:1.8 (Formulation D22 in Table 3, above), then mixed with firefly luciferase (fLuc) mRNA dissolved in an aqueous buffer at a volume ratio of 1:3 via microfluidic nanoprecipitation on a turbulent mixing device, resulting in small, low dispersity particles. Physical particle properties were characterized. Delivery vehicles with initial sizes larger than 120 nm were not brought forward into in vivo screening as liver fenestrae primarily accommodate LNPs sized under 100 nm. In vivo expression of delivery vehicles comprising peptoids with varied headgroups was evaluated using fLuc expression in BALB/c mice 6 hours after IV dose (FIG. 1). […] The aminoethyl and aminopropyl headgroups both show preferential expression in lung (FIG. 2), potentially due to the high basicity of the pendant primary amine, as groups with higher pKas are known to accumulate in that organ. […] While spleen and lung selectivity merit further optimization for future therapeutic applications, liver-selective targets were used for further studies herein to prepare for systemic delivery of antibody targets and maximize their serum expression with anti-RSV cargo.
# Intravenous administration. The delivery vehicle complexes disclosed herein are effective for in vivo administration of Fluc mRNA to BALB/c mice through multiple routes of administration. In general, delivery system complexes were administered at a dose of 0.5 mg/kg via a tail-vein injection, and the resulting bioluminescence was quantified after 6 hours. Organ-specific bioluminescence was quantified by sacrificing the treated animal, dissecting out the organs of interest, and separately quantifying the resulting bioluminescence
# In one particular instance, to investigate how the peptoid lipid block impacts in vivo expression, delivery vehicles with diameter larger than 120 nm were excluded and remaining candidates were administered IV to BALB/c mice. Luminescence was measured after 6 hours and the resulting expression in liver, lung and spleen were quantified. Even without changing the cationic headgroup, luciferase expression spanned 4 orders of magnitude as a result of altering the lipid block in this series. […] In vivo expression of all candidates was then fit to a multi-parameter model containing the 4 input parameters to understand the individual contributions of each factor to overall performance. […] Contour plots of the impact of these factors on expression (all using Ehx as the branched/unsaturated monomer) are shown in FIG. 4.
# For imaging studies, female BALB/c mice (6-8 weeks old) were obtained and acclimatized for a minimum of 3 days prior to experiments. The animals were maintained on a 12 hour light cycle in a temperature and humidity controlled room. A daily health check was performed as well as food and water check. For dosing, mice were injected with 2.5 μg fLuc mRNA-containing delivery vehicles intravenously in 100 μL total injection volume. At 6 hours post-injection, mice were anesthetized with isoflurane, and injected intraperitoneally with 30 mg/mL D-luciferin at a dose of 10 μL per gram bodyweight intraperitoneally. Imaging was done 10 minutes post D-luciferin injection using an IVIS® Spectrum Imaging System. Immediately after in vivo imaging, mice were terminally bled by cardiac puncture and euthanized. The organs of interest were harvested, placed in black 24-well plates, and imaged. Living Image® software was used to quantify the total photon flux in regions of interest. For secreted protein studies, mice were injected with aRSV mRNA-containing delivery vehicles intravenously in 100 μL total injection volume. Mice were euthanized after 24 hours, with serum collection at 6 and 24 hours post-injection. […]
# [5] = Zeta potential of delivery vehicles; format: physicochemical; settings: Table 5; delivery vehicle, pH 7 buffer; in mV (unit assumed)
# Experimental: In one particular instance, the size and polydispersity (PDI) of delivery vehicles was measured by dynamic light scattering in PBS using a DynaPro® plate reader III. The zeta potential of delivery vehicles was determined using Nano-ZS™ particle analyzer. Zeta sample was diluted to 30 uM total lipid in a weakly buffered solution of 10 mM HEPES, 10 mM MES, 10 mM ammonium acetate pH 7. Measurements were collected in duplicate for over 30 run with the voltage manually set to […]
# [6] = Apparent particle pKa, TNS fluorescence assay; format: physicochemical; settings: Table 5; apparent particle pKa of delivery vehicle
# Experimental: The apparent particle pKa was assessed by a TNS fluorescence assay. Briefly, particles were diluted to 130 uM total lipid in TNS buffer ranging in pH 3-11 for 10 minutes with […] of TNS probe. The fluorescence was measured at room temperature in a plate reader ex 320/em 445. Fluorescence intensity was normalized to the minimal and maximal values and the pKa was determined by a 3 parameter fit to determine the half maximum of the curve.
smiles,measurement,setting,value
CCCCCCCCCCCCN(CC(=O)N(CC(N)=O)CC(CC)CCCC)C(=O)CN(CCCCCCCC)C(=O)CN(CC(CC)CCCC)C(=O)CN(CCCCCCCCCCCC)C(=O)CN(CCCCCCCC)C(=O)CNC(CO)CO (centres unmarked) [Compound 35] (H-[N(CH(CH2OH)2)Gly][N(octyl)Gly][Gly(N-dodecyl)][N(2-ethylhexyl)Gly][N(octyl)Gly][Gly(N-dodecyl)][N(2-ethylhexyl)Gly]-NH2),% Encapsulation,[1],76.1%
same,"hemolysis at 45 min, 150 mM total lipid","[2]; pH 5, read-out: Hemolysis at pH 5",4.5%
same,"hemolysis at 45 min, 150 mM total lipid","[2]; pH 7, read-out: Hemolysis at pH 7",5.1%
same,PDI,[3],0.082
same,Particle Size (nm),[3],90.7 nm
same,fLuc (luciferase) expression in vivo,[4],top expressers
same,Zeta Potential,[5],−5.88
same,pKa (TNS),[6],5.937
